Consider two molecules from ChEMBL document CHEMBL4396870, “Pharmacological Chaperones for the Treatment of α-Mannosidosis” (J Med Chem, 2019).

The test system of test [1] is T1, Lysosomal alpha-mannosidase (Homo sapiens), O00754 [R916C].
T1 sequence (whole entry): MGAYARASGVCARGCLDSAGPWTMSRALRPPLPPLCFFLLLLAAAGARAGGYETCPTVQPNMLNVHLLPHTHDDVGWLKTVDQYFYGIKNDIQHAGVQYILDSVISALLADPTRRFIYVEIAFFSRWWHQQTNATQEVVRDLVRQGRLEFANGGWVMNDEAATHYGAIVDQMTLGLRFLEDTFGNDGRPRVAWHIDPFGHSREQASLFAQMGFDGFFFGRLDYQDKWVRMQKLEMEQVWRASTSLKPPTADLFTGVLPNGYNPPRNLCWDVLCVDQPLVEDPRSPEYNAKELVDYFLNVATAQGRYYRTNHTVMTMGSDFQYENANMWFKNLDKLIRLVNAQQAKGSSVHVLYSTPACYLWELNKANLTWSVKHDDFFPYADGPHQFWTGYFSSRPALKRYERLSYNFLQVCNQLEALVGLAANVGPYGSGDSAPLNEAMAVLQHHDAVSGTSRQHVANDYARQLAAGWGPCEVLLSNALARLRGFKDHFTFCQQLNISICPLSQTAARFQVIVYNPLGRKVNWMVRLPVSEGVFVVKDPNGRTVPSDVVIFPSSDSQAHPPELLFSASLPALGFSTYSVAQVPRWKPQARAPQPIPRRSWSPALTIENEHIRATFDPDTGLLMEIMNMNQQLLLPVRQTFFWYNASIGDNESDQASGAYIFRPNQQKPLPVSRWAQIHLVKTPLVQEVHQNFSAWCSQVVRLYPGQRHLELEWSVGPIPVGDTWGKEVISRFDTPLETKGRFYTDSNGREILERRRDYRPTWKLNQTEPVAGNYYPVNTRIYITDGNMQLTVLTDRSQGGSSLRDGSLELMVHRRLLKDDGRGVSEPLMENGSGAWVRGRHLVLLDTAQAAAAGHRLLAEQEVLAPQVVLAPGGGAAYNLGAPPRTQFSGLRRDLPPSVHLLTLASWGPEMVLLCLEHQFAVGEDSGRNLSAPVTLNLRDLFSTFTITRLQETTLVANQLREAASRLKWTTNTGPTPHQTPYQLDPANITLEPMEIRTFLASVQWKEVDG
As to the kind of experiment: Chaperone activity at human Lysosomal alpha-mannosidase R916C mutant transfected in human […] knockout HAP1 cells assessed as enzyme activity enhancement at 0.2 uM incubated for 96 hrs relative to control.

Test [2] deals with T2, Lysosomal alpha-mannosidase (Homo sapiens), O00754 [C55F].
T2 sequence (whole entry): T1 sequence (whole entry) with C55F, C916R
As to the kind of experiment: Chaperone activity at human Lysosomal alpha-mannosidase C55F mutant transfected in human […] knockout HAP1 cells assessed as enzyme activity enhancement at 2 uM incubated for 96 hrs relative to control.

Test [3] concerns T1, Lysosomal alpha-mannosidase (Homo sapiens), O00754 [R916C]. As to the kind of experiment: Chaperone activity at human Lysosomal alpha-mannosidase R916C mutant transfected in human […] knockout HAP1 cells assessed as enzyme activity enhancement at 2 uM incubated for 96 hrs relative to control.

Where a chain is given by its changes, count along the chain named.

`CC(C)(C)OC(=O)NCCCCCCCCCN[C@@H]1[C@@H](O)[C@@H](O)[C@H](O)[C@H]2COC(=O)N21`: the Activity is 8% in test [1], 51% in test [2] and 26% in test [3].
With `COC[C@H]1O[C@@H]2O[C@H]3[C@H](OC)[C@@H](OC)[C@@H](O[C@H]4[C@H](OC)[C@@H](OC)[C@@H](O[C@H]5[C@H](OC)[C@@H](OC)[C@@H](O[C@H]6[C@H](OC)[C@@H](OC)[C@@H](O[C@H]7[C@H](OC)[C@@H](OC)[C@@H](O[C@H]8[C@H](OC)[C@@H](OC)[C@@H](O[C@H]1[C@H](OC)[C@H]2OC)O[C@@H]8COC)O[C@@H]7COC)O[C@@H]6COC)O[C@@H]5COCc1cn(CCCCCCN[C@@H]2[C@@H](O)[C@@H](O)[C@H](O)[C@H]5COC(=O)N52)nn1)O[C@@H]4COC)O[C@@H]3COC`, the Activity in test [1] was 45%; in test [2], 12%; in test [3], 33%.
